The values below come from patent US20250032485A1, “APPLICATION OF IMIDAZO [1,2-A] PYRAZINE COMPOUNDS OR THEIR PHARMACEUTICALLY ACCEPTABLE SALTS IN THE PREPARATION OF ANTI-CORONAVIRUS DRUGS” (GUANGZHOU MEDICAL UNIVERSITY, priority 2023, published 2025).

The target of the experiment is PLpro of SARS-CoV-2 (Severe acute respiratory syndrome coronavirus 2, UniProt P0DTD1). Nature of the experiment: Enzyme activity test in vitro: inhibition of PLpro at fixed concentration 50 μM (RLRGG-AMC substrate). The experiment is classed as biochemical. The following applies: read-out: Inhibition rate at 50 μM (%).
As to `CN(C)c1ccc(-c2nc3cnccn3c2Nc2cccc(C(=O)O)c2)cc1` [P19447, 3-[[2-[4-(dimethyl-amino)phenyl]imidazo [1,2-a]pyrazin-3-yl]amino]benzoic acid], the inhibition at 50 µM came out at 42.1%.
`CCOC(=O)c1ccc(Nc2c(-c3ccc(O)c(OC)c3)nc3cnccn23)cc1` [P22551, ethyl 4-[[2-(4-hydroxy-3-methoxyphenyl)imidazo[1,2-a]pyrazin-3-yl]amino]benzoate]: the inhibition at 50 µM was 21%.
For `CCc1cccc(C)c1Nc1c(-c2ccc(NC(C)=O)cc2)nc2cnccn12` [P22513, N-[4-[3-(2-ethyl-6-methylanilino)imidazo [1,2-a]pyrazin-2-yl]phenyl]acetamide] the value was 21.9%; for `CN(C)c1ccc(-c2nc3cnccn3c2Nc2ccc(C(=O)O)cc2)cc1` [P19475, 4-[[2-[4-(dimethyl-amino)phenyl]imidazo [1,2-a]pyrazin-3-yl]amino]benzoic acid], 35.1%.
For `CSc1ccc(-c2nc3cnccn3c2Nc2ccc(C(=O)N3CCOCC3)cc2)cc1` [P22425, [4-[[2-(4-methyl-sulfanylphenyl)imidazo [1,2-a]pyrazin-3-yl]amino]phenyl]-morpholin-4-ylmethanone] the value was 40.7%; for `O=C(NCC1CCCO1)c1cccc(Nc2c(-c3ccccc3)nc3cnccn23)c1` (centres unmarked) [P22477, N-(oxolan-2-ylmethyl)-3-[(2-phenylimidazo [1,2-a]pyrazin-3-yl)amino]benzamide], 41%.
Under `COc1ccc(-c2nc3cnccn3c2Nc2ccc3c(c2)OCCO3)cc1OC` [P24852, N-(2,3-dihydro-1,4-benzodioxin-6-yl)-2-(3,4-dimethoxy-phenyl)imidazo[1,2-a]pyrazin-3-amine] stands 24.9%.
Take `COc1ccc(-c2nc3cnccn3c2Nc2cccc(C(=O)NCc3ccco3)c2)cc1` [P22459, N-(furan-2-ylmethyl)-3-[[2-(4-methoxy-phenyl)imidazo[1,2-a]pyrazin-3-yl]amino]benzamide]: the inhibition at 50 µM amounted to 35.4%.
Regarding `COc1ccc(-c2nc3cnccn3c2Nc2cccc(C(=O)NCCN3CCOCC3)c2)cc1` [P22437, 3-[[2-(4-methoxy-phenyl)imidazo[1,2-a]pyrazin-3-yl]amino]-N-(2-morpholin-4-ylethyl)benzamide], the inhibition at 50 µM is 24.2%.
Under `Cc1ccc(-c2nc3cnccn3c2Nc2ccc(C(=O)N3CCCCC3)cc2)cc1` [P22464, [4-[[2-(4-methyl-phenyl)imidazo[1,2-a]pyrazin-3-yl]amino]phenyl]-piperidin-1-ylmethanone] stands 29.6%; under `COC(=O)c1ccc(-c2nc3cnccn3c2NC2CCCCC2)cc1` [P24359, methyl 4-[3-(cyclohexylamino)imidazo[1,2-a]pyrazin-2-yl]benzoate], 37.1%.
For the compound `COc1ccc(-c2nc3cnccn3c2Nc2ccccc2C)cc1OC` [P19463, 2-(3,4-dimethoxy-phenyl)-N-(2-methylphenyl)imidazo[1,2-a]pyrazin-3-amine], the inhibition at 50 µM amounted to 40.7%.
`O=C(c1ccc(Nc2c(-c3ccccc3)nc3cnccn23)cc1)N1CCOCC1` [P22474, morpholin-4-yl-[4-[(2-phenylimidazo [1,2-a]pyrazin-3-yl)amino]phenyl] methanone]: the inhibition at 50 µM came out at 35.3%.
For `COc1ccc(-c2nc3cnccn3c2Nc2ccc(C(=O)N3CCCCC3)cc2)cc1OC` [P22460, [4-[[2-(3,4-dimethoxy-phenyl)imidazo[1,2-a]pyrazin-3-yl]amino]phenyl]-piperidin-1-ylmethanone], the inhibition at 50 µM was determined as 31.8%.
As to `O=C(O)c1cccc(Nc2c(-c3ccccc3O)nc3cnccn23)c1` [P37318, 3-[[2-(2-hydroxy-phenyl)imidazo[1,2-a]pyrazin-3-yl]amino] benzoic acid], the inhibition at 50 µM worked out at 15.9%.
Under `COC(=O)c1cccc(Nc2c(-c3ccc(OC)cc3)nc3cnccn23)c1` [P19485, methyl 3-[[2-(4-methoxy-phenyl)imidazo[1,2-a]pyrazin-3-yl]amino] benzoate] stands 36%.
Under `CSc1ccc(-c2nc3cnccn3c2Nc2ccc(C(=O)NC(C)C)cc2)cc1` [P22462, 4-[[2-(4-methyl-sulfanylphenyl)imidazo [1,2-a]pyrazin-3-yl]amino]-N-propan-2-ylbenzamide] stands 40.7%.
For `COC(=O)c1cccc(Nc2c(-c3ccc(F)cc3)nc3cnccn23)c1` [P37357, methyl 3-[[2-(4-fluorophenyl)imidazo[1,2-a]pyrazin-3-yl]amino] benzoate], the inhibition at 50 µM is 4.32%.
For `O=C(NCCN1CCOCC1)c1cccc(Nc2c(-c3ccc(Cl)cc3)nc3cnccn23)c1` [P22447, 3-[[2-(4-chlorophenyl)imidazo[1,2-a]pyrazin-3-yl]amino]-N-(2-morpholin-4-ylethyl)benzamide] the value was 41.9%; for `COC(=O)c1ccc(-c2nc3cnccn3c2Nc2cccc(C(=O)OC)c2)cc1` [P19494, methyl 3-[[2-(4-methoxy-carbonylphenyl)imidazo [1,2-a]pyrazin-3-yl]amino]benzoate], 25.4%; for `CN(C)CCNC(=O)c1cccc(Nc2c(-c3ccc(Cl)cc3)nc3cnccn23)c1` [P22457, 3-[[2-(4-chlorophenyl)imidazo[1,2-a]pyrazin-3-yl]amino]-N-[2-(dimethylamino)ethyl]benzamide], 38.6%.
Turning to `CCOC(=O)c1ccc(Nc2c(-c3ccccc3O)nc3cnccn23)cc1` [P22512, ethyl 4-[[2-(2-hydroxy-phenyl)imidazo[1,2-a]pyrazin-3-yl]amino] benzoate], the inhibition at 50 µM turned out to be 26.9%.
Under `COc1ccc(-c2nc3cnccn3c2Nc2ccc(C(=O)NCCN(C)C)cc2)cc1` [P22443, N-[2-(dimethylamino)ethyl]-4-[[2-(4-methoxyphenyl)imidazo[1,2-a]pyrazin-3-yl]amino]benzamide] stands 41.2%; under `O=C(NCc1ccco1)c1cccc(Nc2c(-c3ccccc3)nc3cnccn23)c1` [P22449, N-(furan-2-ylmethyl)-3-[(2-phenylimidazo [1,2-a]pyrazin-3-yl)amino]benzamide], 27.5%.
Under `CCNC(=O)c1cccc(Nc2c(-c3ccc(OC)cc3)nc3cnccn23)c1` [P28734, N-ethyl-3-[[2-(4-methoxyphenyl)imidazo[1,2-a]pyrazin-3-yl]amino]benzamide] stands 41%; under `O=C(O)c1cccc(Nc2c(-c3cccc(Cl)c3)nc3cnccn23)c1` [P19457, 3-[[2-(3-chlorophenyl)imidazo[1,2-a]pyrazin-3-yl]amino] benzoic acid], 39.7%; under `CCOC(=O)c1ccc(Nc2c(-c3ccc(N4CCOCC4)cc3)nc3cnccn23)cc1` [P24803, ethyl 4-[[2-(4-morpholin-4-ylphenyl)imidazo [1,2-a]pyrazin-3-yl]amino]benzoate], 24.7%.
Under `CNC(=O)c1ccc(Nc2c(-c3ccccc3)nc3cnccn23)cc1` [P22451, N-methyl-4-[(2-phenyl-imidazo[1,2-a]pyrazin-3-yl)amino] benzamide] stands 34.7%.
Regarding `CSc1ccc(-c2nc3cnccn3c2Nc2cccc(C(=O)NC3CCCCC3)c2)cc1` [P22448, N-cyclohexyl-3-[[2-(4-methylsulfanyl-phenyl)imidazo[1,2-a]pyrazin-3-yl]amino] benzamide], the inhibition at 50 µM was 26.9%.
Under `O=C(NCC1CCCO1)c1ccc(Nc2c(-c3ccccc3)nc3cnccn23)cc1` (centres unmarked) [P22463, N-(oxolan-2-ylmethyl)-4-[(2-phenylimidazo [1,2-a]pyrazin-3-yl)amino]benzamide] stands 25.8%; under `CNC(=O)c1cccc(Nc2c(-c3ccc(Cl)cc3)nc3cnccn23)c1` [P19512, 3-[[2-(4-chlorophenyl)imidazo[1,2-a]pyrazin-3-yl]amino]-N-methylbenzamide], 41.6%; under `COC(=O)c1cccc(Nc2c(-c3ccc(Cl)cc3)nc3cnccn23)c1` [P37337, methyl 3-[[2-(4-chlorophenyl)imidazo[1,2-a]pyrazin-3-yl]amino] benzoate], 23%.
Under `CCNC(=O)c1cccc(Nc2c(-c3ccc(SC)cc3)nc3cnccn23)c1` [P22466, N-ethyl-3-[[2-(4-methylsulfanylphenyl)imidazo[1,2-a]pyrazin-3-yl]amino] benzamide] stands 22.2%.
As for `CNC(=O)c1ccc(Nc2c(-c3ccc(OC)cc3)nc3cnccn23)cc1` [P19472, 4-[[2-(4-methoxy-phenyl)imidazo[1,2-a]pyrazin-3-yl]amino]-N-methylbenzamide], the inhibition at 50 µM is 28.1%.
Under `Cc1ccc(-c2nc3cnccn3c2Nc2ccc(C(=O)NCCN(C)C)cc2)cc1` [P22453, N-[2-(dimethylamino)ethyl]-4-[[2-(4-methylphenyl)imidazo [1,2-a]pyrazin-3-yl]amino]benzamide] stands 36.6%; under `CCOC(=O)c1ccc(Nc2c(-c3ccccc3)nc3cnccn23)cc1` [P22483, ethyl 4-[(2-phenylimidazo [1,2-a]pyrazin-3-yl)amino]benzoate], 29.4%.
On to `COc1ccc(-c2nc3cnccn3c2Nc2ccc(C(=O)NC(C)C)cc2)cc1` [P22432, 4-[[2-(4-methoxy-phenyl)imidazo[1,2-a]pyrazin-3-yl]amino]-N-propan-2-ylbenzamide], for which the inhibition at 50 µM came out at 42.2%.
For `COC(=O)c1ccc(-c2nc3cnccn3c2NC2CCCC2)cc1` [P37287, methyl 4-[3-(cyclopentyl-amino)imidazo[1,2-a]pyrazin-2-yl] benzoate] the value was 21%; for `O=C(O)c1cccc(Nc2c(-c3ccccc3)nc3cnccn23)c1` [P19497, 3-[(2-phenylimidazo [1,2-a]pyrazin-3-yl)amino]benzoic acid], 31.2%.
As to `O=C(O)c1cccc(Nc2c(-c3ccc([N+](=O)[O-])cc3)nc3cnccn23)c1` [P37328, 3-[[2-(4-nitrophenyl)imidazo[1,2-a]pyrazin-3-yl]amino] benzoic acid], the inhibition at 50 µM came out at 17.2%.
Under `COC(=O)c1cccc(Nc2c(-c3ccc(O)cc3)nc3cnccn23)c1` [P37327, methyl 3-[[2-(4-hydroxy-phenyl)imidazo[1,2-a]pyrazin-3-yl]amino] benzoate] stands 48.5%.
